Measurements: PMC5216742, “Discovery and characterization of a novel potent type II native and mutant BCR-ABL inhibitor (CHMFL-074) for Chronic Myeloid Leukemia (CML)” (Oncotarget, 2016)
Read-outs that look alike come from different tables or passages of the source.

What was measured:
[1] = system: K562, KU812 and MEG-01 cells; assay: Cell cycle analysis; type: cell-based; conditions: K562 (24 h), KU812 (12 h), MEG-01 (24 h)
Procedure: K562, KU812 and MEG01 cells were treated with serially diluted CHMFL-074 for 12 or 24 hours. The cells were fixed in 70% cold ethanol and incubated at −20°C overnight, then stained with PI/RNase staining buffer (BD Pharmingen). Flow cytometry was performed using a FACS Calibur (BD), and results were analyzed by ModFit software.

[2] = molecular target: T1, ABL1(Q252H)-phosphorylated (Homo sapiens, UniProt P00519, Q252H); assay: KinomeScan profiling; type: binding; conditions: 1 µM CHMFL-074; read-out: % Control
T1 construct: purchased DiscoveRx (KinomeScan service)

[3] = In vivo pharmacokinetics study; conditions: male, Sprague-Dawley, plasma, rat; for MRT inf: read-out: MRT(0-∞)
Procedure: The final concentration of the stock solution was 1 mg/mL for administration. […] Each time about 0.2 mL blood was collected through the jugular vein adding heparin for anticoagulation and kept on ice. Then plasma was separated by centrifugation at 8000 rpm for 6 minutes at 2–8°C. The obtained plasma was stored at −80°C before analysis. After finishing the test, all surviving animals will be transferred to the repository or euthanasia (CO2 asphyxiation).

[4] = system: normal human B-cells purified from the peripheral blood; assay: Proliferation assay on normal cells from peripheral blood; type: cell-based; conditions: at 1 μM
Procedure: Mononuclear cells were isolated from CML patients or healthy donors by density-gradient centrifugation through Ficoll (Beijing Solarbio Science & Technology Co., Ltd., Beijing, China) at 400 g for 30 min, followed by two washes in 1× phosphate-buffered saline. Cells were then cultured in liquid culture (RPMI1640, supplemented with 20% FBS). All blood samples from CML patients and healthy donors were obtained through written consent under approval of the Chinese Academy of Sciences Institutional Review Board. The ethics committees approved the consent Procedure. CML primary patient cells were tested in liquid culture (RPMI1640, supplemented with 20% FBS) in the presence of different concentrations of CHMFL-074. The trypan blue exclusion assay was used for quantification of cells for seeding for before Cell-Titer Glo assays (Promega, USA). The Cell-Titer Glo assay was used for proliferation studies and carried out according to manufacturer's instructions. Cell viability is reported as percentages of control (untreated) cells.

KU812 = assay: Anti-proliferation, intact cancer cell lines; type: cell-based; conditions: Homo sapiens; KU812 (CML), 72 hours
Procedure: (§1) The K562 (CML), KU812 (CML), MEG-01 (CML), MV4-11 (AML), MOLM14 (AML), U937 (AML), REC-1 (Human B-cell lymphoma cell), HL-60 (Human promyelocytic leukemia cells), MEC-1(CLL), CHL (Hamster lung cell), CHO (Hamster ovary cell) cell lines were obtained from American Type Culture Collection (Manassas, VA). All the cells were grown in a humidified incubator (Thermo, USA) at 37°C under 5% CO2. CHO cells were maintained in DMEM supplemented with 10% FBS, 1% penicillin/strepto-mycin. MV4-11 (AML) were grown in IMDM supplemented with 10% FBS, 1% penicillin/streptomycin. […] For suspension cells, cells were collected by spinning down at 800 rpm/min for 5 min before use.
(§2) A density of 1 × 10^4 to 2.5 × 10^4 cells/mL cells were mixed with various concentrations of compounds then 100 μL suspension was added to each well and incubated for 72 hours. Cell viability was determined using the CellTiter-Glo assay (Promega, USA) or CCK-8 assay (Beboy, China). Both assays were performed according to the manufacturer instructions. For CellTiter-Glo assay, luminescence was determined in a multi-label reader (Envision, PerkinElmer, USA). […] Data were normalized to control group (DMSO). GI50 were calculated using Prism 6.0 (GraphPad Software, San Diego, CA).

U937 = assay: Anti-proliferation, intact cancer cell lines; type: cell-based; conditions: Homo sapiens, U-937, 72 h
Procedure: as §1, §2

MEG-01 = assay: Anti-proliferation, intact cancer cell lines; type: cell-based; conditions: Homo sapiens, MEG-01, 72 h
Procedure: as §1, §2

REC-1 = assay: Anti-proliferation, intact cancer cell lines; type: cell-based; conditions: Homo sapiens, Rec1, 72 h
Procedure: as §1, §2

HL-60 = assay: Anti-proliferation, intact cancer cell lines; type: cell-based; conditions: Homo sapiens, HL-60, 72 h
Procedure: as §1, §2

K562 = assay: Anti-proliferation, intact cancer cell lines; type: cell-based; conditions: Homo sapiens; K562 (CML), 72 hours
Procedure: as §1, §2

MEC-1 = assay: Anti-proliferation, intact cancer cell lines; type: cell-based; conditions: Homo sapiens, MEC1, 72 h
Procedure: as §1, §2

## Cc1ccc(NC(=O)c2ccc(CN3CCN(C)CC3)c(C(F)(F)F)c2)cc1OC1CCN(C(=O)c2cccnc2)CC1 [CHMFL-074]
[1]
  concentration inducing G0/G1 phase cell cycle arrest: ≥ 0.3 µM
[2]
  remaining binding at 1 µM: 0.4%
[3]; IV 1mg/kg, mean
  AUC(0-inf): 340 ng·h/mL
  AUC(0-t): 337 ng·h/mL
  Cmax: 739 ng/mL
  Tmax: 0.02 h
  half-life: 1.23 h
  MRT inf: 1.29 h
[3]; IV 1mg/kg, mean, read-out: CLz (converted)
  clearance: 49.3 mL/min/kg
[3]; IV 1mg/kg, mean, read-out: Vz
  Vd: 5.25 L/kg
[3]; PO 10 mg/kg, mean
  AUC(0-inf): 1460 ng·h/mL
  AUC(0-t): 1130 ng·h/mL
  Cmax: 190 ng/mL
  Tmax: 4 h
  half-life: 3.38 h
  MRT inf: 6.58 h
[3]; PO 10 mg/kg, read-out: F (bioavailability)
  bioavailability: 42.9%
[4]
  inhibitory activity against normal human B-cells: did not show any inhibitory activities
KU812
  GI50: 57 nM
U937
  GI50: > 10000 nM
MEG-01
  GI50: 18 nM
REC-1
  GI50: > 10000 nM
HL-60
  GI50: > 10000 nM
K562
  GI50: 56 nM
MEC-1
  GI50: > 10000 nM
